Source: US20260234188A1, “CHEMOKINE-BINDING PEPTIDES” (Oxford University Innovation Limited, priority 2022, published 2026)
“Also recorded” adds a separate entry of the source.

tested on: panel of up to 42 human chemokines; test: Phage-display next generation sequencing screen of overlapping hexadecapeptide libraries, chemokines displayed on streptavidin beads; assay type: binding; settings: log2E greater than 5, chemokines named by first part of UniProt entry name, C5a (control) binders excluded;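 further: chemokine listed when log2 fold enrichment exceeds 5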
How it was run: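 Phage-display libraries of 55662 overlapping hexadecapeptides from tick and viral chemokine-binding proteins, human chemokines and chemokine receptors screened against up to 42 human chemokines, with hits found by next-generation sequencing. Peptides mapped to parent-protein position with log2 fold enrichment; regions of interest where cumulative residue log2 E exceeds the 95% upper CI of the protein median.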

Substance | Chemokines Bound
CR10279 (IYLLNLAISNLLFLVT) | CCL28, SDF1,; also recorded: CXL13, IL8
CR10681 (KIIFSYVVVFLVAWLP) | CCL25, CCL28, and SDF1
CR10825 (KLIFAIVVAYFLSWGP) | CCL17, CCL28,; also recorded: CXL14
CR11295 (KVLWALQYIGLGFFAA) | CCL17, CCL18,; also recorded: CCL2, CXL10,; also recorded: SDF1, CXL14
CR11478 (LAFIYVLMFLANAIGN) | CCL1, CCL20,; also recorded: CXL11, SDF1,; also recorded: CXL13, CXL14
CR11556 (LAKLEAFFLNLSIYWS) | CCL18, CCL2, and CCL25, CCL28, and CCL8, X3CL1, and CXL10, CXL11, and SDF1, CXL13, and IL8
CR11604 (LALSISLLAEVLMFLF) | CCL17, CCL18,; also recorded: CCL20, CCL25,; also recorded: CXL10, CXL13,; also recorded: CXL14, IL8
CR11719 (LATFKILIAIVWGVMP) | CCL1, CCL18,; also recorded: CCL20, CCL22,; also recorded: CCL25, CCL28,; also recorded: CXL10, SDF1
CR11720 (LATFKILICIVWGVMP) | CCL17, CCL18,; also recorded: CCL19, CCL20,; also recorded: CCL25, CXL10,; also recorded: CXL14
CR11776 (LAVKIVFSFIWGVLPT) | CCL17, CCL18,; also recorded: CCL19, CCL20,; also recorded: CCL22, CCL25,; also recorded: CCL8, X3CL1,; also recorded: CXL10, CXL11,; also recorded: SDF1, CXL13,; also recorded: CXL14, IL8
CR11907: chemokine binding peptide of Table 5A used in FIG. 5 combinations (LDFILALVGNTLALWL) | CCL11, CCL18, and CCL2
CR12037 (LENMLFASFYLLDFIL) | CCL22, CXL10,; also recorded: CXL11, SDF1,; also recorded: CXL13, IL8
CR12163 (LFIGIKIVYAFLWGIF) | CCL18, CCL19,; also recorded: CCL2, CCL25,; also recorded: CCL28, X3CL1,; also recorded: CXL10, SDF1,; also recorded: CXL13, CXL14
CR12240 (LFMFVLSVLGNLTVVS) | CCL17, CCL18,; also recorded: CCL19, CCL25,; also recorded: CCL28, CXL10,; also recorded: CXL11, SDF1
CR12277 (LFSFNRFFCQLVYFIY) | CCL18, CCL25,; also recorded: X3CL1, CXL10
CR12308 (LFTLYVSTLDFCIVFI) | CCL20, CCL22, and CCL28, CXL10, and SDF1
CR12330 (LFVMLFSYGFTLRTLF) | CCL17, CCL18, and CCL20, CCL22, and CCL28, CXL14, and IL8
CR12432 (LGIILFSYVEILRTLF) | CCL17, CCL18, and CXL10, CXL11, and IL8
CR12439 (LGIMLFAYSMIIRTLQ) | CCL17, CCL18,; also recorded: CCL20, CCL25
CR12569 (LGVWLMAIVGTFLNVL) | CCL2, X3CL1,; also recorded: CXL10, CXL11
CR12869 (LIWVISLLVSLPQIIY) | CCL17, CCL18, and X3CL1, CXL14, and IL8
CR12872 (LIYLFLLLWEDTQGWG) | CCL1, CCL18, and CCL19, CCL2, and CCL20, CCL25, and CXL10, SDF1, and IL8
CR13108 (LLFFVFSFPYHVLNLL) | CCL17, CCL18,; also recorded: CXL10, CXL11,; also recorded: CXL14, IL8
CR13203 (LLIMLFSYGFTLRTLF) | CCL18, CCL22, and CCL28, X3CL1, and SDF1

Substance | Chemokines Bound
CR13324 (LLMLGLELLFGFFIPL) | CCL1, CCL11,; also recorded: CCL17, CCL18,; also recorded: CCL2, CCL20,; also recorded: CCL22, CCL28,; also recorded: CXL10, CXL11,; also recorded: SDF1, CXL14
CR13391 (LLQALYSAVVPLIYSC) | CCL1, CCL18,; also recorded: CXL14
CR13458 (LLSVLFTLYVSTLDFS) | CCL18, CCL2, and CCL20, CXL10, and CXL11, SDF1, and CXL13, CXL14, and IL8
CR13507 (LLTWLAGLIFSVPAAV) | CCL1, CCL11,; also recorded: CCL17, CCL18,; also recorded: CCL19, CCL2,; also recorded: CCL20, CCL22,; also recorded: CCL25, CCL28,; also recorded: X3CL1, CXL10,; also recorded: CXL11, SDF1,; also recorded: CXL14, IL8
CR13605 (LMFMIFAYTFIVKTLV) | CCL17, CCL18,; also recorded: CCL20, CCL22,; also recorded: CXL10
CR13634 (LMLVFSFVSMLASLAH) | CCL19, CCL28,; also recorded: CXL13, CXL14
CR13966 (LPTMVFSFFYVIFCKA) | CCL20, CCL25,; also recorded: SDF1, CXL14
CR13967 (LPTMVFSFFYVIFSKA) | CCL1, CCL17,; also recorded: CCL18, CCL19,; also recorded: CCL20, CCL28,; also recorded: CXL10
CR14086 (LQTVITFALYVGQFLA) | CCL15, CCL2,; also recorded: CCL28, X3CL1
CR14316 (LSISLLAEVLMFLFPN) | CCL17, CCL18,; also recorded: CCL19, CCL2,; also recorded: CCL20, CCL22,; also recorded: CCL25, X3CL1,; also recorded: CXL14
CR14365 (LSLSISLLAEVLMFLF) | CCL11, CCL19,; also recorded: CCL28, SDF1,; also recorded: CXL13, IL8
CR14548 (LTGFLFYLNMYASIYF) | CCL18, CCL19, and CCL22, CCL28, and CXL10, CXL11, and SDF1, CXL13, and IL8
CR14585 (LTLKVILGFFLPFVVM) | CCL17, CCL18,; also recorded: CCL19, CCL20,; also recorded: CXL14
CR14752 (LVFIFGFVGNMLVVLI) | CCL17, CCL25,; also recorded: CXL10
CR14765 (LVFLLSLVGNSLVLWV) | CCL2, CCL28,; also recorded: CXL10, IL8
CR14780 (LVFVIGLVGNILVVLV) | CCL17, CCL18,; also recorded: CCL19, CCL20,; also recorded: CCL22, CCL25,; also recorded: CCL28, X3CL1,; also recorded: CXL10, CXL14
CR14849 (LVLGLLLNSLALWVFC) | CCL17, CCL19, and CCL20, CCL28, and SDF1
CR14850 (LVLGLLLNSLALWVFS) | CCL22, CCL28,; also recorded: CXL10, CXL11,; also recorded: SDF1, CXL14
CR14974 (LVTLPFWGISVAWHWV) | CCL18, CCL25,; also recorded: CCL28
CR14976 (LVTMAVWVASILSSIL) | CCL2, SDF1,; also recorded: CXL13
CR15063 (LWVVVFQFQHIMVGLI) | CCL17, CCL18, and CCL19, CCL2, and CCL20, CCL22, and CCL28, CCL8, and X3CL1, CXL10, and CXL11, SDF1, and CXL13, CXL14, and IL8
CR15077 (LYAHLAAAFLWVVVAV) | CCL18, CCL19,; also recorded: CCL20, CCL22,; also recorded: CCL25, CCL28,; also recorded: CXL10, CXL11,; also recorded: SDF1, IL8
CR15079 (LYAHLASAFLWVVVAV) | CCL17, CCL18,; also recorded: CCL20, CCL22,; also recorded: CCL28, X3CL1,; also recorded: CXL10, CXL11,; also recorded: SDF1, CXL13,; also recorded: CXL14, IL8
CR15153 (LYSLLFLLGLLGNGAV) | CCL18, CCL22,; also recorded: CCL25

Substance | Chemokines Bound
CR15502 (MIFTWNLVLSQFFSIL) | CCL11, CCL17,; also recorded: CCL18, CCL19,; also recorded: CCL20, CCL22,; also recorded: CCL25, CCL28,; also recorded: CCL8, X3CL1,; also recorded: CXL10, CXL11,; also recorded: SDF1, CXL13,; also recorded: CXL14, IL8
CR15670 (MMTWFYAFFYSTVQRA) | CCL18, CCL2, and CCL20, CCL25, and CCL28, CCL8, and X3CL1, CXL13, and IL8
CR15801 (MSFFSGMLLLLCISID) | CCL18, CCL20, and SDF1
CR15915 (MVFSFFYVIFAKALHD) | CCL1, CCL18,; also recorded: CCL19, CCL20
CR15917 (MVFSFFYVIFSKALHD) | CCL19, X3CL1,; also recorded: SDF1, CXL13
CR15930 (MVIWVLAFFLSSPSLV) | CCL28, CXL10,; also recorded: CXL14
CR15967 (MVWANLLVFVVSFLPL) | CCL1, CXL10, and SDF1
CR16988 (NVTFTGLIAAFSWFML) | CCL17, CCL18,; also recorded: CCL20, CCL22,; also recorded: CCL25, CCL28,; also recorded: CXL10, SDF1,; also recorded: CXL14
CR17126 (PCGIITSVLAWVTAIL) | CCL1, CCL20,; also recorded: CCL22, CCL28,; also recorded: X3CL1, CXL10,; also recorded: CXL11, SDF1,; also recorded: CXL14, IL8
CR17298 (PGPWMNILWAWFIFWW) | CCL1, CCL17,; also recorded: CCL18, CCL19,; also recorded: CCL20, CCL28,; also recorded: CXL10, CXL14
CR17781 (PSWIISFSVWMAAILL) | CCL17, CCL18, and CCL19, CCL2, and CCL20, CCL22, and CCL25, CCL28, and X3CL1, CXL10, and CXL11, SDF1, and CXL13, CXL14, and IL8
CR17907 (PYHWGWVLGDFLAKLL) | CCL17, CCL18,; also recorded: CCL25
CR18189 (QHNLFFLLSLGIILFC) | CCL17, CCL18,; also recorded: CCL22, CCL25,; also recorded: X3CL1, CXL14
CR18714 (QYLKAFLAAVLGWHLA) | CCL18, CCL28,; also recorded: CXL13, CXL14
CR18933 (RFGVWLMSIVGTFLNM) | CCL28, CXL10, and IL8
CR18955 (RFRQYLKAFLAAVLGW) | CCL17, CCL18,; also recorded: CXL14
CR19192 (RLGVWLMSIVGTFLNV) | CCL1, CCL17,; also recorded: CCL2, CCL25,; also recorded: X3CL1, CXL11
CR19824 (RVTLTALAVWGLALLF) | CCL2, CCL22,; also recorded: CCL25, CXL10,; also recorded: CXL11, SDF1,; also recorded: CXL14, IL8
CR19826 (RVTLTSLAVWGLSLLF) | CCL17, CCL2,; also recorded: X3CL1, CXL14
CR20068 (SAVLTLKVILGFFLPF) | CCL17, CCL18,; also recorded: CCL20, CCL25,; also recorded: CCL28, CXL11
CR20273 (SESALAFIYVLMFLCN) | CCL18, CCL19,; also recorded: CCL20, CXL14
CR20429 (SFYISLFAGVSFLINL) | CCL22, CCL25,; also recorded: CXL10, CXL11
